Values after ≈ are worked out from the molar mass of the structure shown.
Legend:
Assay in all cases: ≥ marks a high value that may be exact or a test limit, other limits are often not marked, values filed in µg/mL are converted to µM
Salmonella typhimurium = test system: Salmonella typhimurium
Pseudomonas aeruginosa = test system: Pseudomonas aeruginosa
Staphylococcus aureus = test system: Staphylococcus aureus
Escherichia coli 55B5 = test system: Escherichia coli 55B5
Escherichia coli UB1005 = test system: Escherichia coli UB1005
Spiroplasma citri R8A2 = test system: Spiroplasma citri R8A2
[1] = test system: Mycoplasma mycoides ssp. mycoides SC KH3J
[2] = test system: Spiroplasma floricola BNR 1
[3] = test system: Acholeplasma laidlawii A-EF22
[4] = test system: Spiroplasma melliferum BC3
Klebsiella sp. = test system: Klebsiella sp.
Providencia stuartii = test system: Providencia stuartii
[5] = test system: Escherichia coli NCTC 8007
Acinetobacter sp. = test system: Acinetobacter sp.
Proteus mirabilis = test system: Proteus mirabilis
[6] = test system: Escherichia coli NCTC 10418
[7] = test system: Staphylococcus aureus NCTC 10571
Klebsiella aerogenes = test system: Klebsiella aerogenes
Candida albicans 3153A = test system: Candida albicans 3153A
[8] = test system: Salmonella enterica serovar Typhimurium MS4252S
[9] = test system: Pseudomonas aeruginosa PAO1
[10] = test system: Pseudomonas aeruginosa Z61
Escherichia coli DC2 = test system: Escherichia coli DC2
Escherichia coli O157:H7 = test system: Escherichia coli O157:H7
Escherichia coli O111 = test system: Escherichia coli O111
[11] = test system: Staphylococcus aureus R147
Candida albicans 105 = test system: Candida albicans 105
[12] = test system: Salmonella enterica subsp. enterica serovar Typhimurium ATCC 14028s
[13] = test system: Staphylococcus epidermidis
[14] = test system: Staphylococcus aureus NCTC 4163
[15] = test system: Staphylococcus aureus 1056
[16] = test system: Enterococcus faecalis ATCC 29212
[17] = test system: Bacillus subtilis ATCC 6633
[18] = test system: Staphylococcus aureus KCTC 3881
[19] = test system: Escherichia coli KCTC 2433
Escherichia coli = test system: Escherichia coli
[20] = test system: Candida albicans ATCC 36232
[21] = test system: Pseudomonas aeruginosa ATCC 9027
Bacillus cereus = test system: Bacillus cereus
[22] = test system: Shigella dysenteriae ATCC 9752
[23] = test system: Micrococcus luteus ATCC 4698
Lactococcus lactis = test system: Lactococcus lactis
[24] = test system: Klebsiella pneumoniae ATCC 10031
[25] = test system: Staphylococcus epidermidis ATCC 12228
[26] = test system: Proteus mirabilis ATCC 25933

## CC[C@H](C)[C@H](NC(=O)[C@H](C)N)C(=O)N[C@@H](Cc1cnc[nH]1)C(=O)N[C@@H](CCCCN)C(=O)N[C@@H](CC(C)C)C(=O)N[C@@H](C)C(=O)N[C@@H](Cc1cnc[nH]1)C(=O)N[C@@H](CCCCN)C(=O)N[C@@H](CC(C)C)C(=O)N[C@@H](CC(C)C)C(=O)N[C@@H](CCCCN)C(=O)N[C@@H](CCCCN)C(=O)N[C@H](C(=O)N[C@@H](CC(C)C)C(=O)N[C@@H](CCCN=C(N)N)C(=O)N[C@@H](C)C(=O)N[C@H](C(=O)N[C@@H](CCCCN)C(=O)N[C@@H](CCCCN)C(=O)N[C@@H](CC(C)C)C(=O)N[C@@H](C)C(=O)N[C@@H](CC(N)=O)C(=O)O)C(C)C)[C@@H](C)O [AIHKLAHKLLKKTLRAVKKLAN]
Salmonella typhimurium
  MIC: 8.5 µM (≈ 21.2 µg/mL)
Pseudomonas aeruginosa
  MIC: 10.5 µM (≈ 26.2 µg/mL)
Staphylococcus aureus
  MIC: 30 µM (≈ 74.9 µg/mL)
Escherichia coli 55B5
  MIC: 5.2 µM (≈ 13 µg/mL)
Escherichia coli UB1005
  MIC: 5.5 µM (≈ 13.7 µg/mL)

## CC(C)C[C@H](NC(=O)[C@H](CC(C)C)NC(=O)[C@H](CCCCN)NC(=O)[C@H](CC(C)C)NC(=O)[C@H](CC(C)C)NC(=O)[C@H](CC(C)C)NC(=O)[C@H](CCCCN)NC(=O)[C@H](CC(C)C)NC(=O)[C@H](CC(C)C)NC(=O)[C@H](CC(C)C)NC(=O)[C@H](CCCCN)NC(=O)[C@H](CC(C)C)NC(=O)[C@H](CC(C)C)NC(=O)[C@@H](N)CCCCN)C(=O)N[C@@H](CCCCN)C(=O)O [KLLKLLLKLLLKLLK]
Spiroplasma citri R8A2
  MIC: 6.25 µM (≈ 11.2 µg/mL)
[1]
  MIC: 6.25 µM (≈ 11.2 µg/mL)
[2]
  MIC: 6.25 µM (≈ 11.2 µg/mL)
[3]
  MIC: 1.56 µM (≈ 2.79 µg/mL)
[4]
  MIC: 6.25 µM (≈ 11.2 µg/mL)

## CC(C)[C@H](NC(=O)[C@H](CCCCN)NC(=O)[C@H](CCCN=C(N)N)NC(=O)[C@@H]1CCCN1C(=O)[C@H](CC(N)=O)NC(=O)[C@H](CCCN=C(N)N)NC(=O)[C@H](CCC(N)=O)NC(=O)[C@H](Cc1c[nH]c2ccccc12)NC(=O)[C@H](CCC(N)=O)NC(=O)[C@@H](N)Cc1ccccc1)C(=O)N[C@@H](CCCN=C(N)N)C(=O)O [FQWQRNPRKVR]
Klebsiella sp.
  MIC: ≥ 1000 µM
Providencia stuartii
  MIC: ≥ 1000 µM
[5]
  MIC: ≥ 1000 µM
Acinetobacter sp.
  MIC: 10 µM (≈ 15.1 µg/mL)
Proteus mirabilis
  MIC: ≥ 1000 µM
[6]
  MIC: ≥ 750 µM
[7]
  MIC: ≥ 250 µM
Klebsiella aerogenes
  MIC: ≥ 1000 µM

## CC[C@H](C)[C@H](NC(=O)[C@@H]1CCCN1C(=O)[C@H](CCCN=C(N)N)NC(=O)[C@@H]1CCCN1C(=O)[C@@H](NC(=O)[C@H](CCCN=C(N)N)NC(=O)[C@@H](N)CCCN=C(N)N)[C@@H](C)CC)C(=O)N[C@@H](CC(C)C)C(=O)N[C@@H](CC(C)C)C(=O)N1CCC[C@H]1C(=O)N[C@@H](Cc1c[nH]c2ccccc12)C(=O)N[C@@H](CCCN=C(N)N)C(=O)N1CCC[C@H]1C(=O)N1CCC[C@H]1C(=O)N[C@@H](CCCN=C(N)N)C(=O)N1CCC[C@H]1C(=O)N[C@H](C(=O)N1CCC[C@H]1C(=O)N[C@@H](CCCN=C(N)N)C(=O)N1CCC[C@H]1C(=O)N[C@@H](CCC(N)=O)C(=O)N1CCC[C@H]1C(=O)N[C@@H](CCC(N)=O)C(=O)N1CCC[C@H]1C(=O)N[C@H](C(=O)N1CCC[C@H]1C(=O)N[C@@H](CCCN=C(N)N)C(=O)N[C@@H](Cc1c[nH]c2ccccc12)C(=O)N[C@@H](CC(C)C)C(N)=O)[C@@H](C)CC)[C@@H](C)CC [RRIPRPILLPWRPPRPIPRPQPQPIPRWL]
Candida albicans 3153A
  MIC: 17.8 µM (≈ 64 µg/mL)
[8]
  MIC: 0.555 µM (≈ 2 µg/mL)
[9]
  MIC: 4.44 µM (≈ 16 µg/mL)
[10]
  MIC: 8.89 µM (≈ 32 µg/mL)
Escherichia coli DC2
  MIC: 0.555 µM (≈ 2 µg/mL)
Escherichia coli O157:H7
  MIC: 8.89 µM (≈ 32 µg/mL)
Escherichia coli O111
  MIC: 4.44 µM (≈ 16 µg/mL)
[11]
  MIC: 8.89 µM (≈ 32 µg/mL)
Candida albicans 105
  MIC: 17.8 µM (≈ 64 µg/mL)
[12]
  MIC: 8.89 µM (≈ 32 µg/mL)
[13]
  MIC: 8.89 µM (≈ 32 µg/mL)
[14]
  MIC: 17.8 µM (≈ 64 µg/mL)
[15]
  MIC: 17.8 µM (≈ 64 µg/mL)
Escherichia coli UB1005
  MIC: 2.22 µM (≈ 8 µg/mL)
[16]
  MIC: 17.8 µM (≈ 64 µg/mL)

## CC[C@H](C)[C@H](NC(=O)[C@H](CC(C)C)NC(=O)[C@@H](N)Cc1ccccc1)C(=O)NCC(=O)N[C@@H](CCSC)C(=O)N[C@H](C(=O)N[C@@H](CCC(N)=O)C(=O)NCC(=O)N[C@@H](CC(C)C)C(=O)N[C@H](C(=O)N[C@H]1CSSC[C@@H](C(=O)O)NC(=O)[C@H](CCCCN)NC(=O)[C@H](CCCN=C(N)N)NC(=O)[C@H]([C@@H](C)O)NC(=O)[C@H]([C@@H](C)CC)NC(=O)[C@H](CC(C)C)NC1=O)[C@@H](C)CC)[C@@H](C)O [FLIGMTQGLICLITRKC]
[17]
  MIC: 13.1 µM (≈ 25 µg/mL)
[18]
  MIC: 7.85 µM (≈ 15 µg/mL)
[19]
  MIC: 31.4 µM (≈ 59.9 µg/mL)
Staphylococcus aureus
  MIC: 12.8 µM (≈ 24.4 µg/mL)
Escherichia coli
  MIC: 25.6 µM (≈ 48.9 µg/mL)
[20]
  MIC: ≥ 52.3 µM
[21]
  MIC: > 52.3 µM
Bacillus cereus
  MIC: 25.6 µM (≈ 48.9 µg/mL)
[22]
  MIC: 26.2 µM (≈ 49.9 µg/mL)
[23]
  MIC: 3.27 µM (≈ 6.24 µg/mL)
Lactococcus lactis
  MIC: 25.6 µM (≈ 48.9 µg/mL)
[24]
  MIC: 31.4 µM (≈ 59.9 µg/mL)
[25]
  MIC: 13.1 µM (≈ 25 µg/mL)
[26]
  MIC: ≥ 52.3 µM
